Measurements: patent US20250268903A1, “RXFP1 AGONISTS” (BRISTOL-MYERS SQUIBB COMPANY, priority 2021, published 2025)

Target: T1, human RXFP1 (Homo sapiens, UniProt Q9HBX9)
T1 construct: expressed in transfected cells
T1 sequence (Q9HBX9 1-757): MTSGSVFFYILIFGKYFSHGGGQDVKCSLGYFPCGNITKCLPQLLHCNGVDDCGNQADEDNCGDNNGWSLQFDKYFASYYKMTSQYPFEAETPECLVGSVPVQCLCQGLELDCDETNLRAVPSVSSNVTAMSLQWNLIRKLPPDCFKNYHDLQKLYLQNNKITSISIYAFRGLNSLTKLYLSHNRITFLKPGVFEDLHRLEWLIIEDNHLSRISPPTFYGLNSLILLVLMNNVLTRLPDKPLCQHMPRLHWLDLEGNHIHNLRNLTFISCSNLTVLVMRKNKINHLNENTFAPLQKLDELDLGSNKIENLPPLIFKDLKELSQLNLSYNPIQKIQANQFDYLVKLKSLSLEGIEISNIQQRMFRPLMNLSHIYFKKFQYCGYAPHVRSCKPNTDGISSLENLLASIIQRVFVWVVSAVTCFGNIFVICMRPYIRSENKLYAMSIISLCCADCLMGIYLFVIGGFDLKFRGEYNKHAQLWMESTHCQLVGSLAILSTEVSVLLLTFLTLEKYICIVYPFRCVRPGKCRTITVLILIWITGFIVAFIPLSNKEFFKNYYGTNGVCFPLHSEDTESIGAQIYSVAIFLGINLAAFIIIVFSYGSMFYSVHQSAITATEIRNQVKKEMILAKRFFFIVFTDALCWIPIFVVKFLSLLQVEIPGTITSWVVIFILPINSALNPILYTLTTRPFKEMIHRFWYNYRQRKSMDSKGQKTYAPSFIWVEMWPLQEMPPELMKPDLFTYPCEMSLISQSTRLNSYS
Assay: hRXFP1 HEK293 cAMP assay (HTRF)
Type: cell-based
Conditions: HEK293 cells stably expressing human RXFP1, 30 min at room temperature
How it was run: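 HEK293 cells stably expressing human RXFP1 (1500 cells/well) in HBSS/20 mM HEPES/0.05% BSA/0.5 mM IBMX. Compounds were tested at 0.010 nM–50 μM final (2% DMSO) for 30 min at room temperature. cAMP was measured by HTRF and values derived by 4-parameter logistic fit.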

Question: For `COc1ccc(CCCN2CCOCC2)cc1C(=O)N[C@@H]1C2CCC(/C2=C/C(F)(F)F)[C@@H]1C(=O)Nc1ccc(F)c(C(F)(F)F)c1` (stereo partly drawn) [Example 121, (2S,3R,7Z)-N-[4-fluoro-3-(trifluoromethyl)phe-nyl]-3-{2-methoxy-5-[3-(morpholin-4-yl)propyl]benzamido}-7-(2,2,2-trifluoroethylidene)bi-cyclo[2.2.1]heptane-2-carboxamide], which EC50 is on record?
Answer: Its EC50 is 1070 nM.

Question: `COc1ccc(CCCNC2CCC2)cc1C(=O)N[C@@H]1C2CCC(/C2=C/C(F)(F)F)[C@@H]1C(=O)Nc1ccc(F)c(C(F)(F)F)c1` (stereo partly drawn) [Example 122, (2S,3R,7Z)-3-{5-[3-(cyclobutylamino)pro-pyl]-2-methoxybenzamido}-N-[4-fluoro-3-(trifluoromethyl)phe-nyl]-7-(2,2,2-trifluoroethylidene)bi-cyclo[2.2.1]heptane-2-carboxamide] was tested. Which EC50 did it give?
Answer: Its EC50 is 2810 nM.

Question: With `COc1ccc(CCCn2cc(-c3ccccc3)nn2)cc1C(=O)N[C@@H]1C2CCC(/C2=C/C(F)(F)F)[C@@H]1C(=O)Nc1ccc(F)c(C(F)(F)F)c1` (stereo partly shown) [Example 123] as the compound, how does the EC50 read?
Answer: The EC50 was 1270 nM.

Question: Which EC50 does the source give for `COc1ccc(/C=C/C(=O)N2CCC(O)CC2)cc1C(=O)N[C@@H]1C2CCC(/C2=C/C(F)(F)F)[C@@H]1C(=O)Nc1ccc(F)c(C(F)(F)F)c1` (stereo partly drawn) [Example 125, (2S,3R,7Z)-N-[4-fluoro-3-(trifluoromethyl)phe-nyl]-3-{5-[(1E)-3-(4-hydroxypiperidin-1-yl)-3-oxoprop-1-en-1-yl]-2-methoxybenzamido}-7-(2,2,2-trifluoroethylidene)bi-cyclo[2.2.1]heptane-2-carboxamide] here?
Answer: Its EC50 is 13 nM.

Question: Which EC50 does the source give for `COc1ccc(/C=C/C(=O)N(C)CCO)cc1C(=O)N[C@@H]1C2CCC(/C2=C/C(F)(F)F)[C@@H]1C(=O)Nc1ccc(F)c(C(F)(F)F)c1` (stereo partly drawn) [Example 126, (2S,3R,7Z)-N-[4-fluoro-3-(trifluoromethyl)phe-nyl]-3-{5-[(1E)-2-[(2-hydroxyethyl)(meth-yl)carbamoyl]eth-1-en-1-yl]-2-methoxybenzamido}-7-(2,2,2-trifluoroethylidene)bi-cyclo[2.2.1]heptane-2-carboxamide] here?
Answer: Its EC50 is 35 nM.

Question: `COc1ccc(/C=C/C(=O)N[C@H]2C[C@H](O)C2)cc1C(=O)N[C@@H]1C2CCC(/C2=C/C2CC2)[C@@H]1C(=O)Nc1ccc(F)c(C(F)(F)F)c1` (stereo partly drawn) [Example 127, (2S,3R,7Z)-7-(cyclopropylmethyli-dene)-N-[4-fluoro-3-(trifluoromethyl)phe-nyl]-3-{2-methoxy-5-[(1E)-2-{[(1r,3r)-3-hydroxycyclobutyl]carbamoyl}eth-1-en-1-yl]benzamido}bicyclo [2.2.1]heptane-2-carboxamide] was tested. Which EC50 did it give?
Answer: Its EC50 is 74 nM.

Question: How did the EC50 turn out when `COc1ccc(/C=C/C(=O)N[C@H]2C[C@@H](O)C2)cc1C(=O)N[C@@H]1C2CCC(/C2=C/C2CC2)[C@@H]1C(=O)Nc1ccc(F)c(C(F)(F)F)c1` (stereo partly drawn) [Example 128, (2S,3R,7Z)-7-(cyclopropylmethyli-dene)-N-[4-fluoro-3-(trifluoromethyl)phe-nyl]-3-{2-methoxy-5-[(1E)-2-{[(1s,3s)-3-hydroxycyclobutyl]carbamoyl}eth-1-en-1-yl]benzamido}bicyclo [2.2.1]heptane-2-carboxamide] was run?
Answer: The EC50 was 96 nM.

Question: For `COc1ccc(/C=C/C(=O)N2CC[C@@H](O)C2)cc1C(=O)N[C@@H]1C2CCC(/C2=C/C(F)(F)F)[C@@H]1C(=O)Nc1ccc(F)c(C(F)(F)F)c1` (stereo partly drawn) [Example 129, (2S,3R,7Z)-N-[4-fluoro-3-(trifluoromethyl)phe-nyl]-3-{5-[(1E)-3-[(3R)-3-hydroxypyrrolidin-1-yl]-3-oxoprop-1-en-1-yl]-2-methoxybenzamido}-7-(2,2,2-trifluoroethylidene)bi-cyclo[2.2.1]heptane-2-carboxamide], which EC50 is on record?
Answer: The EC50 was 111 nM.

Question: Which EC50 does the source give for `COc1ccc(/C=C/C(=O)N2CC[C@H](O)C2)cc1C(=O)N[C@@H]1C2CCC(/C2=C/C(F)(F)F)[C@@H]1C(=O)Nc1ccc(F)c(C(F)(F)F)c1` (stereo partly drawn) [Example 130, (2S,3R,7Z)-N-[4-fluoro-3-(trifluoromethyl)phe-nyl]-3-{5-[(1E)-3-[(3S)-3-hydroxypyrrolidin-1-yl]-3-oxoprop-1-en-1-yl]-2-methoxybenzamido}-7-(2,2,2-trifluoroethylidene)bi-cyclo[2.2.1]heptane-2-carboxamide] here?
Answer: The EC50 was 114 nM.

Question: With `COc1ccc(/C=C/C(=O)N[C@H]2C[C@H](O)C2)cc1C(=O)NC1C2CCC(/C2=C/C(F)(F)F)[C@@H]1C(=O)Nc1ccc(F)c(C(F)(F)F)c1` (stereo partly drawn) [Example 131, (2S,3R,7Z)-N-[4-fluoro-3-(trifluoromethyl)phe-nyl]-3-{2-methoxy-5-[(1E)-2-{[(1r,3r)-3-hydroxycyclobutyl]car-bamoyl}eth-1-en-1-yl]benzamido}-7-(2,2,2-trifluoroethylidene)bi-cyclo[2.2.1]heptane-2-carboxamide] as the compound, how does the EC50 read?
Answer: Its EC50 is 264 nM.

Question: How did the EC50 turn out when `COc1ccc(/C=C/C(N)=O)cc1C(=O)N[C@@H]1C2CCC(/C2=C/C(F)(F)F)[C@@H]1C(=O)Nc1ccc(F)c(C(F)(F)F)c1` (stereo partly drawn) [Example 132, (2S,3R,7Z)-3-{5-[(1E)-2-carbamoyleth-1-en-1-yl]-2-methoxybenzamido}-N-[4-fluoro-3-(trifluoromethyl)phe-nyl]-7-(2,2,2-trifluoroethylidene)bi-cyclo[2.2.1]heptane-2-carboxamide] was run?
Answer: Its EC50 is 380 nM.

Question: Which EC50 does the source give for `COc1ccc(/C=C/C(=O)NCCO)cc1C(=O)N[C@@H]1C2CCC(/C2=C/C(F)(F)F)[C@@H]1C(=O)Nc1ccc(F)c(C(F)(F)F)c1` (stereo partly drawn) [Example 133, (2S,3R,7Z)-N-[4-fluoro-3-(trifluoromethyl)phe-nyl]-3-{5-[(1E)-2-[(2-hydroxyethyl)carba-moyl]eth-1-en-1-yl]-2-methoxybenzamido}-7-(2,2,2-trifluoroethylidene)bi-cyclo[2.2.1]heptane-2-carboxamide] here?
Answer: Its EC50 is 384 nM.

Question: With `COc1ccc(/C=C/C(=O)N[C@H]2C[C@@H](O)C2)cc1C(=O)N[C@@H]1C2CCC(/C2=C/C(F)(F)F)[C@@H]1C(=O)Nc1ccc(F)c(C(F)(F)F)c1` (stereo partly drawn) [Example 134, (2S,3R,7Z)-N-[4-fluoro-3-(trifluoromethyl)phe-nyl]-3-{2-methoxy-5-[(1E)-2-{[(1s,3s)-3-hydroxycyclobutyl]car-bamoyl}eth-1-en-1-yl]benzamido}-7-(2,2,2-trifluoroethylidene)bi-cyclo[2.2.1]heptane-2-carboxamide] as the compound, how does the EC50 read?
Answer: The EC50 was 561 nM.

Question: With `COc1ccc(/C=C/C(=O)NC2CCC2)cc1C(=O)NC1C2CCC(/C2=C/C(F)(F)F)[C@@H]1C(=O)Nc1ccc(F)c(C(F)(F)F)c1` (stereo partly drawn) [Example 135, (2S,3R,7Z)-3-{5-[(1E)-2-(cyclobutylcarbamoyl)eth-1-en-1-yl]-2-methoxybenzamido}-N-[4-fluoro-3-(trifluoromethyl)phe-nyl]-7-(2,2,2-trifluoroethylidene)bi-cyclo[2.2.1]heptane-2-carboxamide] as the compound, how does the EC50 read?
Answer: The EC50 was 644 nM.

Question: `COc1ccc(/C=C/C(=O)NCC(F)(F)F)cc1C(=O)NC1C2CCC(/C2=C/C(F)(F)F)[C@@H]1C(=O)Nc1ccc(F)c(C(F)(F)F)c1` (stereo partly drawn) [Example 136, (2S,3R,7Z)-N-[4-fluoro-3-(trifluoromethyl)phe-nyl]-3-{2-methoxy-5-[(1E)-2-[(2,2,2-trifluoroethyl)carba-moyl]eth-1-en-1-yl]benzamido}-7-(2,2,2-trifluoroethylidene)bi-cyclo[2.2.1]heptane-2-carboxamide] was tested. Which EC50 did it give?
Answer: Its EC50 is 776 nM.

Question: `COc1ccc(CCC(=O)NCCO)cc1C(=O)N[C@@H]1C2CCC(/C2=C/C(F)(F)F)[C@@H]1C(=O)Nc1ccc(F)c(C(F)(F)F)c1` (stereo partly drawn) [Example 137, (2S,3R,7Z)-N-[4-fluoro-3-(trifluoromethyl)phe-nyl]-3-(5-{2-[(2-hydroxyethyl)carba-moyl]ethyl}-2-methoxybenzamido)-7-(2,2,2-trifluoroethylidene)bi-cyclo[2.2.1]heptane-2-carboxamide] was tested. Which EC50 did it give?
Answer: The EC50 was 400 nM.

Question: Which EC50 does the source give for `COc1ccc(CCC(=O)N2CC[C@H](O)C2)cc1C(=O)N[C@@H]1C2CCC(/C2=C/C(F)(F)F)[C@@H]1C(=O)Nc1ccc(F)c(C(F)(F)F)c1` (stereo partly drawn) [Example 138, (2S,3R,7Z)-N-[4-fluoro-3-(trifluoromethyl)phe-nyl]-3-(5-{3-[(3S)-3-hydroxypyrrolidin-1-yl]-3-oxopropyl}-2-methoxybenzamido)-7-(2,2,2-trifluoroethylidene)bi-cyclo[2.2.1]heptane-2-carboxamide] here?
Answer: Its EC50 is 428 nM.

Question: For `COc1ccc(CCC(=O)NC2CCC2)cc1C(=O)NC1C2CCC(/C2=C/C(F)(F)F)[C@@H]1C(=O)Nc1ccc(F)c(C(F)(F)F)c1` (stereo partly drawn) [Example 139, (2S,3R,7Z)-3-{5-[2-(cyclobutylcarbamoyl)ethyl]-2-methoxybenzamido}-N-[4-fluoro-3-(trifluoromethyl)phe-nyl]-7-(2,2,2-trifluoroethylidene)bi-cyclo[2.2.1]heptane-2-carboxamide], which EC50 is on record?
Answer: The EC50 was 694 nM.

Question: How did the EC50 turn out when `COc1ccc(CCC(N)=O)cc1C(=O)NC1C2CCC(/C2=C/C(F)(F)F)[C@@H]1C(=O)Nc1ccc(F)c(C(F)(F)F)c1` (stereo partly drawn) [Example 140, (2S,3R,7Z)-3-[5-(2-carbamoylethyl)-2-methoxybenzamido]-N-[4-fluoro-3-(trifluoromethyl)phe-nyl]-7-(2,2,2-trifluoroethylidene)bi-cyclo[2.2.1]heptane-2-carboxamide] was run?
Answer: The EC50 was 736 nM.
